Reference: ChEMBL document CHEMBL1201862, “PubChem BioAssay data set” (2004)
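Cultured in 96-well plates, cells were exposed to test compound for 48 hours across five concentrations. Abbreviation: GI50, concentration required for 50% inhibition of growth.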 Calls of active or inactive are those of the source. No stated cut-off is given here; in the data, active = GI50 up to about 1.1 µM and inactive = higher.

Assays:
Test in all cases: NCI anticancer screen, dose series, 48 h
DU-145 = test system: DU-145
MDA-MB-231 = test system: MDA-MB-231
HCT-15 = test system: HCT-15
NCI-H460 = test system: NCI-H460
U-251 = test system: U-251
NCI-H522 = test system: NCI-H522
OVCAR-5 = test system: OVCAR-5
SF-539 = test system: SF-539
K562 = test system: K562
UACC-257 = test system: UACC-257
CAKI-1 = test system: CAKI-1
SK-OV-3 = test system: SK-OV-3
TK-10 = test system: TK-10
LOX IMVI = test system: LOX IMVI
OVCAR-3 = test system: OVCAR-3
A498 = test system: A498
UACC-62 = test system: UACC-62
Malme-3M = test system: Malme-3M
HOP-92 = test system: HOP-92
BT-549 = test system: BT-549

| SMILES | GI50 (DU-145) | GI50 (MDA-MB-231) | GI50 (HCT-15) [µM] | GI50 (NCI-H460) | GI50 (U-251) | GI50 (NCI-H522) | GI50 (OVCAR-5) | GI50 (SF-539) | GI50 (K562) | GI50 (UACC-257) | GI50 (CAKI-1) | GI50 (SK-OV-3) | GI50 (TK-10) | GI50 (LOX IMVI) | GI50 (OVCAR-3) | GI50 (A498) | GI50 (UACC-62) | GI50 (Malme-3M) | GI50 (HOP-92) | GI50 (BT-549) |
| --- | --- | --- | --- | --- | --- | --- | --- | --- | --- | --- | --- | --- | --- | --- | --- | --- | --- | --- | --- | --- |
| Fc1ccc(NCn2nc(COc3ccccc3Cl)n(/N=C/c3ccc(-c4ccc(Cl)cc4Cl)o3)c2=S)cc1Cl | 47.6 µM (inactive) | 44.4 µM (inactive) | 26.7 | 32.7 µM (inactive) | 25.8 µM (inactive) | 36.7 µM (inactive) | > 100 µM (inactive) | 31.3 µM (inactive) | 15.4 µM (inactive) | 41.5 µM (inactive) | 34.4 µM (inactive) | 46.6 µM (inactive) | 31.8 µM (inactive) | 23.9 µM (inactive) | 37.9 µM (inactive) | 16.1 µM (inactive) | – | – | – | – |
| CCCCCCCCC(=O)NCCCNCCCNC(=O)CCCCCCCC | – | – | 14.7 | 2.54 µM (inactive) | 3.25 µM (inactive) | 5.05 µM (inactive) | 15.2 µM (inactive) | 15.7 µM (inactive) | 2.18 µM (inactive) | 7.1 µM (inactive) | 13 µM (inactive) | 14.3 µM (inactive) | 15.1 µM (inactive) | 1.77 µM (inactive) | 15.5 µM (inactive) | 16.9 µM (inactive) | 5.79 µM (inactive) | 12.6 µM (inactive) | 3.85 µM (inactive) | – |
| N#C/C(=C\c1cc(OCc2ccccc2)c(OCc2ccccc2)cn1)C(N)=O | – | – | > 100 | > 100 µM (inactive) | > 100 µM (inactive) | 19.1 µM (inactive) | > 100 µM (inactive) | > 100 µM (inactive) | 26.2 µM (inactive) | > 100 µM (inactive) | > 100 µM (inactive) | > 100 µM (inactive) | > 100 µM (inactive) | 30.5 µM (inactive) | > 100 µM (inactive) | > 100 µM (inactive) | > 100 µM (inactive) | > 100 µM (inactive) | 85.7 µM (inactive) | – |
| Cn1c(=O)c2c(-c3ccccc3)onc2n(C)c1=O | – | 49.9 µM (inactive) | 21.1 | 35.9 µM (inactive) | 28.1 µM (inactive) | 27.9 µM (inactive) | 31 µM (inactive) | 37.9 µM (inactive) | 30.3 µM (inactive) | 31.3 µM (inactive) | 42.1 µM (inactive) | > 100 µM (inactive) | 14.4 µM (inactive) | 21.2 µM (inactive) | 12.1 µM (inactive) | 64.1 µM (inactive) | 21.7 µM (inactive) | 46.8 µM (inactive) | 42 µM (inactive) | 17.2 µM (inactive) |
| C=C(C)[C@H]1CC(=O)[C@@]2(C)C[C@H]3O[C@]3(C)CC/C=C(\C)CC[C@H]12 | 99.5 µM (inactive) | 84.1 µM (inactive) | 47.2 | 45.7 µM (inactive) | 51.9 µM (inactive) | 37.1 µM (inactive) | 86.9 µM (inactive) | 42 µM (inactive) | 18 µM (inactive) | 19.4 µM (inactive) | 28.2 µM (inactive) | 63.2 µM (inactive) | 22.2 µM (inactive) | 57.5 µM (inactive) | 29.9 µM (inactive) | 36.1 µM (inactive) | 28.1 µM (inactive) | 44.6 µM (inactive) | 64.1 µM (inactive) | – |
| COc1cc(CNc2cnc3ccc(N)cc3n2)cc(OC)c1OC | – | – | > 100 | > 100 µM (inactive) | > 100 µM (inactive) | > 100 µM (inactive) | > 100 µM (inactive) | > 100 µM (inactive) | 36.3 µM (inactive) | > 100 µM (inactive) | > 100 µM (inactive) | > 100 µM (inactive) | > 100 µM (inactive) | > 100 µM (inactive) | > 100 µM (inactive) | > 100 µM (inactive) | > 100 µM (inactive) | > 100 µM (inactive) | > 100 µM (inactive) | – |
| O=C(O)CCNS(=O)(=O)c1ccc(NC(=O)c2ccccc2)cc1 | – | – | > 100 | > 100 µM (inactive) | > 100 µM (inactive) | > 100 µM (inactive) | > 100 µM (inactive) | > 100 µM (inactive) | > 100 µM (inactive) | > 100 µM (inactive) | > 100 µM (inactive) | > 100 µM (inactive) | > 100 µM (inactive) | > 100 µM (inactive) | > 100 µM (inactive) | > 100 µM (inactive) | > 100 µM (inactive) | > 100 µM (inactive) | > 100 µM (inactive) | – |
| COc1ccc(Cn2nc(OCc3ccccc3)c3cc([N+](=O)[O-])ccc32)cc1 | > 100 µM (inactive) | > 100 µM (inactive) | > 100 | > 100 µM (inactive) | – | > 100 µM (inactive) | > 100 µM (inactive) | > 100 µM (inactive) | > 100 µM (inactive) | > 100 µM (inactive) | – | > 100 µM (inactive) | > 100 µM (inactive) | > 100 µM (inactive) | > 100 µM (inactive) | > 100 µM (inactive) | > 100 µM (inactive) | > 100 µM (inactive) | – | – |
| COC(=O)C1(Cc2ccccc2)Cc2ccccc2C1 | 30.8 µM (inactive) | 32.7 µM (inactive) | 26.1 | 25.5 µM (inactive) | 25.8 µM (inactive) | – | 31.8 µM (inactive) | 50.9 µM (inactive) | 15.8 µM (inactive) | 24.4 µM (inactive) | 18.5 µM (inactive) | 39.6 µM (inactive) | 21.2 µM (inactive) | 20.5 µM (inactive) | > 10 µM (inactive) | – | 21.5 µM (inactive) | 15.5 µM (inactive) | 11.5 µM (inactive) | – |
| O=C(Sc1c(-c2ccccc2)c(=O)n(-c2ccccc2)c(=S)n1-c1ccccc1)c1cccs1 | > 100 µM (inactive) | – | 34.7 | > 100 µM (inactive) | 84.1 µM (inactive) | 29.2 µM (inactive) | > 100 µM (inactive) | – | 25.1 µM (inactive) | 60.3 µM (inactive) | > 100 µM (inactive) | 35 µM (inactive) | > 100 µM (inactive) | 11.4 µM (inactive) | > 100 µM (inactive) | – | > 10 µM (inactive) | 86.3 µM (inactive) | 50 µM (inactive) | > 100 µM (inactive) |
| CCc1c(C)[nH]c2c1/C(=N/N=C1\CCCc3[nH]c(C)c(CC)c31)CCC2 | – | – | 19.4 | 18 µM (inactive) | 17 µM (inactive) | 14.3 µM (inactive) | 25.6 µM (inactive) | 28.2 µM (inactive) | 16.7 µM (inactive) | 17.5 µM (inactive) | 29.4 µM (inactive) | 30.8 µM (inactive) | 49.1 µM (inactive) | 20.9 µM (inactive) | 14.5 µM (inactive) | 25.6 µM (inactive) | 18.5 µM (inactive) | > 100 µM (inactive) | 14.5 µM (inactive) | – |
| CN(C)CC1COC2Cc3ccccc3C1O2 (centres undefined) | > 100 µM (inactive) | > 100 µM (inactive) | > 100 | > 100 µM (inactive) | > 100 µM (inactive) | > 100 µM (inactive) | > 100 µM (inactive) | > 100 µM (inactive) | > 100 µM (inactive) | > 100 µM (inactive) | > 100 µM (inactive) | > 100 µM (inactive) | > 100 µM (inactive) | > 100 µM (inactive) | > 100 µM (inactive) | > 100 µM (inactive) | – | > 100 µM (inactive) | > 100 µM (inactive) | – |
| CCOC(=O)NC(=O)c1cn(CCN2CCN(C(=O)CNC(=O)CNC(=O)Cn3cc(C(=O)NC(=O)OCC)c(=O)[nH]c3=O)CC2)c(=O)[nH]c1=O | – | – | > 100 | > 100 µM (inactive) | > 100 µM (inactive) | > 100 µM (inactive) | > 100 µM (inactive) | > 100 µM (inactive) | > 100 µM (inactive) | > 100 µM (inactive) | > 100 µM (inactive) | > 100 µM (inactive) | > 100 µM (inactive) | > 100 µM (inactive) | > 100 µM (inactive) | > 100 µM (inactive) | > 100 µM (inactive) | > 100 µM (inactive) | > 100 µM (inactive) | – |
| O=C(O)/C=C/C(=O)N1C/C(=C\c2ccccc2)C(=O)/C(=C/c2ccccc2)C1 | – | – | 6.73 | 14.1 µM (inactive) | 1.87 µM (inactive) | 1.9 µM (inactive) | 17.9 µM (inactive) | 10.8 µM (inactive) | 2.37 µM (inactive) | 7.18 µM (inactive) | 15.1 µM (inactive) | 21.3 µM (inactive) | 10.3 µM (inactive) | 3.13 µM (inactive) | 7.26 µM (inactive) | 20.1 µM (inactive) | 2.97 µM (inactive) | 4.72 µM (inactive) | 19.9 µM (inactive) | – |
| CC(N)Cc1ccc(Cl)cc1 (centres undefined) | – | – | 51.6 | 50 µM (inactive) | > 100 µM (inactive) | > 100 µM (inactive) | 58.5 µM (inactive) | > 100 µM (inactive) | 50.6 µM (inactive) | > 100 µM (inactive) | > 100 µM (inactive) | > 100 µM (inactive) | > 100 µM (inactive) | > 100 µM (inactive) | > 100 µM (inactive) | > 100 µM (inactive) | > 100 µM (inactive) | > 100 µM (inactive) | 50.8 µM (inactive) | – |
| NS(=O)(=O)c1cc2c(cc1Cl)NCNS2(=O)=O [HYDROCHLOROTHIAZIDE] | > 100 µM (inactive) | > 100 µM (inactive) | > 100 | > 100 µM (inactive) | > 100 µM (inactive) | > 100 µM (inactive) | > 100 µM (inactive) | > 100 µM (inactive) | > 100 µM (inactive) | > 100 µM (inactive) | > 100 µM (inactive) | – | > 100 µM (inactive) | > 100 µM (inactive) | > 100 µM (inactive) | – | – | > 100 µM (inactive) | > 100 µM (inactive) | – |
